From patent US8889704B2 (Array BioPharma Inc., priority 2011, dated 2014) come the findings set out here.

As a reminder, the IC50 is the midpoint of a concentration-inhibition curve.

Each structure is given as a SMILES string. Structures can show the parent of a compound that is named as a salt.

What all share (format): biochemical
Experiment [1] addresses T1, GST-tagged recombinant full-length human Pim-2 (Homo sapiens, UniProt Q9P1W9).
T1 construct: GST-tagged recombinant full-length human Pim-2; GST
Put plainly: PIM-2 Assay (as Example A). As to conditions: averaged IC50; 4 μM ATP, 1.0 μM PIM2tide, 1.5 nM Pim-2. In outline:
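Radiometric filter-binding assay: GST-tagged full-length human Pim-2 (1.5 nM) phosphorylates 1.0 μM PIM2tide with 4 μM [γ-33P]ATP for 60 min at 22 °C in pH 7.4 MOPS buffer, 2% DMSO. 10-point 3-fold dilutions from 10 μM top dose; IC50 from 4-parameter fit of percent of control.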

A further experiment concerns the target recombinant rat PIM-3 (Rattus norvegicus, UniProt O70444). Kind of experiment: PIM-3 Assay (as Example A). Particulars: averaged IC50; 30 μM ATP, 3.75 μM PIM2tide, 0.5 nM PIM-3. In outline:
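Recombinant rat PIM-3 (0.5 nM) with 3.75 μM PIM2tide and 30 μM [γ-33P]ATP in MOPS pH 7.4 buffer, 60 min at 22 °C; labelled peptide captured on phosphocellulose filters and counted by scintillation. 10-point curve (top dose 10 μM, 2% DMSO); IC50 from 4-parameter fit of percent of control.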

A further experiment has as its target PIM-1 (Homo sapiens, UniProt P11309). Put plainly: Enzyme PIM-1 Assay ([33P]ATP incorporation into PIM2tide, filter plate). Particulars: averaged IC50; 35 μM ATP, 7.5 μM PIM2tide, 0.25 nM PIM-1, 60 min at 22° C. A digest of the protocol:
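Radiometric assay: 0.25 nM PIM-1 phosphorylates 7.5 μM PIM2tide with 35 μM [γ-33P]ATP in 20 mM MOPS pH 7.4, 10 mM MgCl2, 1 mM DTT, 0.005% Tween-20, 60 min at 22 °C. Product captured on P81 filters, scintillation counted; 10-point 3-fold curve from 10 μM top, 2% DMSO, IC50 by 4-parameter logistic fit of POC.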

T1 sequence (Q9P1W9 whole entry): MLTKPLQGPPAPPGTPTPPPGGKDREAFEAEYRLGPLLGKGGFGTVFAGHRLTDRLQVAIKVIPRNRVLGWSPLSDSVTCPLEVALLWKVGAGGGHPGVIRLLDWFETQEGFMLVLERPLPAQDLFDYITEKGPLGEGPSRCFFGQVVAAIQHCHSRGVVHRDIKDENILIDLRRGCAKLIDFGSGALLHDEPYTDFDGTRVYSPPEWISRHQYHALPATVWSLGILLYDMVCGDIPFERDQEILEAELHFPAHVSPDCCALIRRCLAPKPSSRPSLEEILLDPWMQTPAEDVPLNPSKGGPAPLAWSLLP
Chain of PIM-1 (P11309 whole entry, species assumed): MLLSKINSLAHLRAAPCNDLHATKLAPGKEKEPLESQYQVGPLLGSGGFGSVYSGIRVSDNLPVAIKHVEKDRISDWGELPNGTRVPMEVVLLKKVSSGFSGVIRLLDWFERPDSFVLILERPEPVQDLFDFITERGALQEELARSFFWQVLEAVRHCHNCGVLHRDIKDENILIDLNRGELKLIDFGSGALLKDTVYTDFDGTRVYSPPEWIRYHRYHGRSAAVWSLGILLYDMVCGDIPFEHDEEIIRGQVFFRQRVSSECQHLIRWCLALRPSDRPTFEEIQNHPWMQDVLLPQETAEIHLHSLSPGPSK

`CC1(NC(=O)c2ccc3ccc(-c4nnc5ccc([C@@H](N6CC[C@@H](N)C6)C(F)(F)F)cn45)nc3c2)CC1` [Example 55, 2-(6-((R)-1-((R)-3-aminopyrrolidin-1-yl)-2,2,2-trifluoroethyl)-[1,2,4]triazolo[4,3-a]pyridin-3-yl)-N-(1-methylcyclopropyl)quinoline-7-carboxamide dihydrochloride]: the results for the 50% inhibitory concentration (IC50) (in experiment [1]; at recombinant rat PIM-3; against PIM-1) were 35 nM, 0.3 nM and 0.25 nM, respectively.
For `N[C@@H]1CCN([C@@H](c2ccc3nnc(-c4ccc5cccc(C6CC6)c5n4)n3c2)C(F)(F)F)C1` [Example 56, (R)-1-((S)-1-(3-(8-cyclopropylquinolin-2-yl)-[1,2,4]triazolo[4,3-a]pyridin-6-yl)-2,2,2-trifluoroethyl)pyrrolidin-3-amine], the half-inhibitory concentration (IC50) came to 16 nM in experiment [1], 2.4 nM at recombinant rat PIM-3 and 0.14 nM on PIM-1.
On to `CN[C@H]1CCN([C@H](c2ccc3nnc(-c4ccc5ccc(C(=O)NC(C)C)cc5n4)n3c2)C(F)(F)F)C1` [Example 57, N-isopropyl-2-(6-((R)-2,2,2-trifluoro-1-((S)-3-(methylamino)pyrrolidin-1-yl)ethyl)-[1,2,4]triazolo[4,3-a]pyridin-3-yl)quinoline-7-carboxamide], for which the half-inhibitory concentration (IC50) in experiment [1] was above 100 nM; on recombinant rat PIM-3, 0.9 nM; against PIM-1 it was 0.45 nM.
The matching figures for `CN[C@H]1CCN([C@H](c2ccc3nnc(-c4ccc5ccc(C(=O)NC(C)(C)C)cc5n4)n3c2)C(F)(F)F)C1` [Example 58, N,N-tert-butyl-2-(6-((R)-2,2,2-trifluoro-1-((S)-3-(methylamino)pyrrolidin-1-yl)ethyl)-[1,2,4]triazolo[4,3-a]pyridin-3-yl)quinoline-7-carboxamide]: above 100 nM, 0.7 nM and 0.6 nM.
With `CCC(C)(C)NC(=O)c1ccc2ccc(-c3nnc4ccc([C@@H](N5CC[C@@H](N)C5)C(F)(F)F)cn34)nc2c1` [Example 59, 2-(6-((R)-1-((R)-3-aminopyrrolidin-1-yl)-2,2,2-trifluoroethyl)-[1,2,4]triazolo[4,3-a]pyridin-3-yl)-N-tert-pentylquinoline-7-carboxamide dihydrochloride], the IC50 in experiment [1] is above 100 nM; on recombinant rat PIM-3, 0.8 nM; against PIM-1, 0.56 nM.
The like results for `N[C@H]1CCN([C@H](c2ccc3nnc(-c4ccc5ccc(F)c(C6CC6)c5n4)n3c2)C(F)(F)F)C1` [Example 60, (S)-1-((R)-1-(3-(8-cyclopropyl-7-fluoroquinolin-2-yl)-[1,2,4]triazolo[4,3-a]pyridin-6-yl)-2,2,2-trifluoroethyl)pyrrolidin-3-amine dihydrochloride] were, in that order, 77 nM, 4 nM and 0.19 nM.
On to `N[C@@H]1CCN([C@H](c2ccc3nnc(-c4ccc5ccc(C6CC6)cc5n4)n3c2)C(F)(F)F)C1` [Example 61, (R)-1-((R)-1-(3-(7-cyclopropylquinolin-2-yl)-[1,2,4]triazolo[4,3-a]pyridin-6-yl)-2,2,2-trifluoroethyl)pyrrolidin-3-amine dihydrochloride], for which the IC50 is above 100 nM in experiment [1], 3.7 nM at recombinant rat PIM-3 and 0.59 nM against PIM-1.
The matching figures for `CC(C)(C)c1cccc2ccc(-c3nnc4ccc([C@@H](N5C[C@@H]6C[C@H]5CN6)C(F)(F)F)cn34)nc12` [Example 62, 2-(6-((R)-1-((1S,4S)-2,5-diazabicyclo[2.2.1]heptan-2-yl)-2,2,2-trifluoroethyl)-[1,2,4]triazolo[4,3-a]pyridin-3-yl)-8-tert-butylquinoline]: 2.9 nM, 1.4 nM and 0.71 nM.
Consider `Fc1ccc2ccc(-c3nnc4ccc([C@@H](N5C[C@@H]6C[C@H]5CN6)C(F)(F)F)cn34)nc2c1` [Example 63, 2-(6-((R)-1-((1S,4S)-2,5-diazabicyclo[2.2.1]heptan-2-yl)-2,2,2-trifluoroethyl)-[1,2,4]triazolo[4,3-a]pyridin-3-yl)-7-fluoro quinoline dihydrochloride], for which the half-maximal inhibitory concentration (IC50) in experiment [1] is above 100 nM; at recombinant rat PIM-3, 25 nM; at PIM-1, 11.7 nM.
Take `FC(F)(F)[C@@H](c1ccc2nnc(-c3ccc4ccc(Cl)cc4n3)n2c1)N1C[C@@H]2C[C@H]1CN2` [Example 64, 2-(6-((R)-1-((1S,4S)-2,5-diazabicyclo[2.2.1]heptan-2-yl)-2,2,2-trifluoroethyl)-[1,2,4]triazolo[4,3-a]pyridin-3-yl)-7-chloro quinoline dihydrochloride]: the figures for the 50% inhibitory concentration (IC50) (in experiment [1]; at recombinant rat PIM-3; against PIM-1) were above 100 nM, 14 nM and 9.33 nM, respectively.
For `FC(F)(F)[C@@H](c1ccc2nnc(-c3ccc4cccc(C5CC5)c4n3)n2c1)N1C[C@@H]2C[C@H]1CN2` [Example 65, 2-(6-((R)-1-((1S,4S)-2,5-diazabicyclo[2.2.1]heptan-2-yl)-2,2,2-trifluoroethyl)-[1,2,4]triazolo[4,3-a]pyridin-3-yl)-8-cyclopropylquinoline dihydrochloride], the IC50 in experiment [1] was 18 nM; on recombinant rat PIM-3, 2 nM; against PIM-1, 1.45 nM.
The like results for `CCc1cccc2ccc(-c3nnc4ccc([C@@H](N5C[C@@H]6C[C@H]5CN6)C(F)(F)F)cn34)nc12` [Example 66, 2-(6-((R)-1-((1S,4S)-2,5-diazabicyclo[2.2.1]heptan-2-yl)-2,2,2-trifluoroethyl)-[1,2,4]triazolo[4,3-a]pyridin-3-yl)-8-ethylquinoline dihydrochloride] were, in that order, 14 nM, 1.7 nM and 0.92 nM.
The like results for `FC(F)(F)[C@@H](c1ccc2nnc(-c3ccc4cccc(OCC5CC5)c4n3)n2c1)N1C[C@@H]2C[C@H]1CN2` [Example 67, 2-(6-((R)-1-((1S,4S)-2,5-diazabicyclo[2.2.1]heptan-2-yl)-2,2,2-trifluoroethyl)-[1,2,4]triazolo[4,3-a]pyridin-3-yl)-8-(cyclopropylmethoxy)quinoline dihydrochloride] were, in that order, 63 nM, 3.2 nM and 1.63 nM.
For the compound `FC(F)(F)[C@@H](c1ccc2nnc(-c3ccc4ccc(Br)cc4n3)n2c1)N1C[C@@H]2C[C@H]1CN2` [Example 68, 2-(6-((R)-1-(1S,4S)-2,5-diazabicyclo[2.2.1]heptan-2-yl)-2,2,2-trifluoroethyl)-[1,2,4]triazolo[4,3-a]pyridin-3-yl)-7-bromo quinoline dihydrochloride], the figures for the half-inhibitory concentration (IC50) (in experiment [1]; on recombinant rat PIM-3; against PIM-1) were above 100 nM, 14 nM and 4.09 nM, respectively.
The like results for `COc1c(C2CC2)ccc2ccc(-c3nnc4ccc([C@@H](N5CC[C@H](N)C5)C(F)(F)F)cn34)nc12` [Example 69, (S)-1-((R)-1-(3-(7-cyclopropyl-8-methoxyquinolin-2-yl)-[1,2,4]triazolo[4,3-a]pyridin-6-yl)-2,2,2-trifluoroethyl)pyrrolidin-3-amine dihydrochloride] were, in that order, 38 nM, 0.5 nM and 0.21 nM.
Turning to `CC(C)C(=O)Nc1ccc2ccc(-c3nnc4ccc([C@@H](N5CC[C@H](N)C5)C(F)(F)F)cn34)nc2c1` [Example 70, N-(2-(6-((R)-1-((S)-3-aminopyrrolidin-1-yl)-2,2,2-trifluoroethyl)-[1,2,4]triazolo[4,3-a]pyridin-3-yl)quinolin-7-yl)isobutyramide], the concentration for half-maximal inhibition (IC50) in experiment [1] was above 100 nM; on recombinant rat PIM-3 it was 0.3 nM; at PIM-1, 0.18 nM.
Regarding `CC(C)(C)C(=O)Nc1ccc2ccc(-c3nnc4ccc([C@@H](N5CC[C@H](N)C5)C(F)(F)F)cn34)nc2c1` [Example 71, N-(2-(6-((R)-1-((S)-3-aminopyrrolidin-1-yl)-2,2,2-trifluoroethyl)-[1,2,4]triazolo[4,3-a]pyridin-3-yl)quinolin-7-yl)pivalamide], the results for the IC50 (in experiment [1]; at recombinant rat PIM-3; against PIM-1) were above 100 nM, 0.3 nM and 0.2 nM, respectively.
The matching figures for `CC(C)Oc1cccc2ccc(-c3nnc4ccc([C@@H](N5C[C@@H](O)[C@H](O)C5)C(F)(F)F)cn34)nc12` [Example 72, (3R,4R)-1-((R)-2,2,2-trifluoro-1-(3-(8-isopropoxyquinolin-2-yl)-[1,2,4]triazolo[4,3-a]pyridin-6-yl)ethyl)pyrrolidine-3,4-diol]: above 100 nM, 2.9 nM and 0.19 nM.
The matching figures for `CCc1cccc2ccc(-c3nnc4ccc([C@@H](N5C[C@@H](O)[C@H](O)C5)C(F)(F)F)cn34)nc12` [Example 73, (3R,4R)-1-((R)-1-(3-(8-ethylquinolin-2-yl)-[1,2,4]triazolo[4,3-a]pyridin-6-yl)-2,2,2-trifluoroethyl)pyrrolidine-3,4-diol]: above 100 nM, 32 nM and 0.17 nM.
